This series has as its system Yap1 mRNA. As to the kind of experiment: Antisense inhibition of human Yap1 in SNU-449 cells by modified oligonucleotides, single dose (Example 5, RTS36584). In kind it is cell-based. Put shortly: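 Plate SNU-449 cells at 10,000 per well; add 2,000 nM modified oligonucleotide without transfection reagent; after ~48 h isolate RNA, run qRT-PCR with RTS36584, normalise to RIBOGREEN and report % UTC.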

Where [1] appears, read: Table 51, Yap1 mRNA remaining as percent of untreated control (UT), SNU-449 cells, single dose.
Setting [2] is: Table 43 experiment, SNU-449 cells, 10,000 cells per well, free uptake, 2,000 nM, approximately 48 hours, RTS36584, Yap1 mRNA normalized to RIBOGREEN, relative to untreated control cells.
Setting [3] is: Table 39, SNU-449 cells, 10,000 cells per well, free uptake, 2,000 nM oligonucleotide, approx. 48 hours, RTS36584, normalized to RIBOGREEN, Yap1 mRNA relative to untreated control.
Where [4] appears, read: Table 41, SNU-449 cells, 10,000 cells per well, free uptake, 2,000 nM modified oligonucleotide, approximately 48 hours, RTS36584, normalized to RIBOGREEN, Yap1 mRNA relative to untreated control cells.
[5] abbreviates: Table 42 (separate experiment), SNU-449 cells, 10,000 cells per well, free uptake, 2,000 nM modified oligonucleotide, approximately 48 hours, RTS36584, normalized to RIBOGREEN, Yap1 mRNA relative to untreated control cells.
[6] abbreviates: Table 52, Yap1 mRNA, modified oligonucleotides targeting SEQ ID NO: 1 and 2.
Setting [7] is: Yap1 mRNA, percent of untreated control, modified oligonucleotides targeting SEQ ID NO: 1 and 2, Table 47.

Strand notation (5' to 3'): a small letter for the sugar, then the base; units joined by * are phosphorothioate-linked, units joined directly phosphodiester-linked; [ ] holds rarer units or linkages, { } end groups; capitals alone tell only the bases. e = 2'-O-(2-methoxyethyl) (MOE); k = constrained ethyl (cEt); [5mC] = 5-methylcytosine; d = 2'-deoxy (DNA); m = 2'-O-methyl

With “1197237 (antisense kT*kA*kT*dA*mA*d[5mC]*dT*dG*dG*dG*d[5mC]*dA*dA*kA*kT*kT) [Compound 1197237]”, under setting [1], the “YAP1 (% UT)” value was 74 % UT.

Take “1200794 (kA*kG*kA*dG*dT*mA*dT*dG*dT*dG*dG*d[5mC]*dA*kA*kT*kA; antisense) [Compound 1200794]”: under setting [1], the “YAP1 (% UT)” value amounted to 18 % UT.

As to “1198273 (k[5mC]*kT*dT*dT*dA*dA*dA*dG*dT*dG*dT*eA*eT*eG*kT*k[5mC]; antisense) [Compound 1198273]”, the “YAP1 (% UTC)” value under setting [2] was 52 % UTC.

Consider “1198472 (antisense kT*kA*dT*dA*dT*dT*dA*dG*dA*dG*dT*eA*kT*eG*kT*eG) [Compound 1198472]”, for which the “YAP1 (% UTC)” value under setting [2] worked out at 60 % UTC.

As for “1198394 (kT*dT*dT*dT*dA*d[5mC]*dA*dT*dT*dA*dG*kG*eA*kA*e[5mC]*kA; antisense) [Compound 1198394]”, the “YAP1 (% UTC)” value under setting [3] stood at 63 % UTC.

Consider “1198642 (kT*kA*dT*dT*dA*dG*dA*dG*dT*dA*dT*dG*kT*eG*kG*e[5mC]; antisense) [Compound 1198642]”, for which the “YAP1 (% UTC)” value under setting [4] came to 19 % UTC.

For “1197268 (kA*kA*kG*dT*mG*dT*dA*dT*dG*dT*d[5mC]*dA*dG*kA*kA*kG) [Compound 1197268]”, the “YAP1 (% UT)” value under setting [1] is listed as 25 % UT.

Take “1198704 (kA*kA*d[5mC]*dT*dT*dT*dA*dA*dA*dG*dT*dG*kT*eA*kT*eG; antisense) [Compound 1198704]”: the “YAP1 (% UTC)” value under setting [5] worked out at 72 % UTC.

Turning to “1198555 (antisense kA*kT*kT*dA*dG*dA*dG*dT*dA*dT*dG*dT*kG*kG*k[5mC]*eA) [Compound 1198555]”, the “YAP1 (% UT)” value (Table 49, Yap1 mRNA level relative to untreated control, modified oligonucleotides targeting SEQ ID NO.: 1 and 2) was 11 % UT.

With “1198707 (kA*kA*dG*dT*dA*dA*dG*dG*dT*dT*dT*d[5mC]*k[5mC]*e[5mC]*kA*eG; antisense) [Compound 1198707]”, the “YAP1 (% UTC)” value under setting [5] turned out to be 31 % UTC.

As for “1200806 (kT*kG*kA*dG*dG*mU*dA*dT*dA*dA*d[5mC]*dT*dG*kG*kG*k[5mC]; antisense) [Compound 1200806]”, the “YAP1 (% UT)” value under setting [6] is reported as 24 % UT.

In the case of “1198628 (TGTCTCATGCCTTATA; modified gapmer, chemistry not fully specified) [Compound 1198628]”, the “YAP1 (% UTC)” value under setting [4] was 27 % UTC.

For the substance “1198429 (kA*dT*dT*dG*d[5mC]*dA*dA*dT*d[5mC]*dT*dG*kT*e[5mC]*kT*eG*kA; antisense) [Compound 1198429]”, under setting [3], the “YAP1 (% UTC)” value amounted to 48 % UTC.

For the substance “1198888 (kA*kG*dA*d[5mC]*dT*dA*dA*dG*dT*dA*dA*kG*eG*kT*eT*kT; antisense) [Compound 1198888]”, the “YAP1 (% UT)” value (Table 46, Yap1 mRNA as percent of untreated control, SNU-449 cells, single dose) is 51 % UT.

Consider “1198242 (kA*kT*dT*dT*dA*dG*dG*dA*dT*dG*d[5mC]*eA*eT*eG*kG*kT; antisense) [Compound 1198242]”, for which, under setting [2], the “YAP1 (% UTC)” value is given as 47 % UTC.

In the case of “1200802 (TATAACTGGGCAAATT; cEt gapmer, phosphorothioate, 5-methylcytosine, chemistry not fully specified) [Compound 1200802]”, the “YAP1 (% UT)” value under setting [6] came out at 89 % UT.

“1198923 (kT*kT*dG*dG*dA*dA*dG*dA*dT*d[5mC]*dT*kG*dA*kA*dA*k[5mC]; antisense) [Compound 1198923]”: for the setting “Table 45, Yap1 mRNA as percent of untreated control, SNU-449 cells, single dose”, the “YAP1 (% UTC)” value is reported as 73 % UTC.

Take “1198301 (kT*k[5mC]*kT*dA*dT*dA*dT*dT*dA*dG*dA*dG*kT*eA*kT*eG; antisense) [Compound 1198301]”: the “YAP1 (% UT)” value (Table 48, Yap1 mRNA level relative to untreated control, modified oligonucleotides targeting SEQ ID NO.: 1 and 2) was determined as 43 % UT.

On to “1197191 (antisense kA*kG*kT*dG*d[5mC]*dT*dT*dT*dG*dG*dA*dA*dG*kA*kT*k[5mC]) [Compound 1197191]”, for which the “YAP1 (% UT)” value under setting [7] turned out to be 40 % UT.

On to “1097238 (antisense kA*kT*kT*dG*d[5mC]*dA*dA*dT*d[5mC]*dT*dG*dT*d[5mC]*kT*kG*kA) [Compound 1097238]”, for which the “YAP1 (% UT)” value under setting [7] came out at 77 % UT.

Consider “1198710 (kA*k[5mC]*dT*dA*dA*dG*dT*dA*dA*dG*dG*dT*kT*eT*k[5mC]*e[5mC]; antisense) [Compound 1198710]”, for which the “YAP1 (% UTC)” value under setting [5] was 51 % UTC.

Values taken from patent US11214803B2, “Modulators of YAP1 expression” (Ionis Pharmaceuticals, Inc., priority 2019, dated 2022).
